# Test results: PMC7395068, “The evolution of strategies to minimise the risk of human drug-induced liver injury (DILI) in drug discovery and development” (Archives of Toxicology, 2020)
# Read-outs that look alike come from different tables or passages of the source.
# Legend:
# [1] = cited from earlier work
# human hepatocytes = details: cited from earlier work
# PHH spheroids = details: In vitro Assay; ref Vorrink 2018; cited from earlier work
# [2] = cited from earlier work; remark: listed apart in the source
# PHH = details: In vitro Assay; ref Proctor 2017; cited from earlier work
# hLiMTs [3] = details: In vitro Assay; ref Proctor 2017; cited from earlier work
# [4] = test system: isolated mouse liver mitochondria; details: In vitro Assay; ref Porceddu 2012; cited from earlier work
# rBsep = details: cited from earlier work
# hLiMTs [5] = experiment: Combined HCI (HCS) and cellular ATP 3D assay in hLiMTs; details: Homo sapiens
# HepaRG spheroids = experiment: Combined HCI (HCS) and cellular ATP 3D assay in HepaRG spheroids; details: Homo sapiens, HepaRG
smiles,measurement,setting,value
CCCSc1ccc2nc(NC(=O)OC)[nH]c2c1 [albendazole],"DILI +VE (5-8), DILI -VE (-4)",[1]; ref Chen 2016,+VE
same,DILI severity category,[1]; ref Chen 2016,vMost-DILI-Concern
same,Structural based (HCI),human hepatocytes,+VE
same,hLiMTs ATP <20 x Cmax,PHH spheroids,-VE
same,In vivo DILI,[2]; ref Vorrink 2018,+VE
same,In vivo DILI,[2]; ref Xu 2008,+VE
N=C(N)NC(=O)c1nc(Cl)c(N)nc1N [amiloride],"DILI +VE (5-8), DILI -VE (-4)",[1]; in vivo,+VE
same,DILI severity category,[1]; in vivo,vLess-DILI-Concern
same,hLiMTs ATP <20 x Cmax,PHH spheroids,-VE
same,In vivo DILI,[2]; in vivo,-VE
CCC1(c2ccc(N)cc2)CCC(=O)NC1=O (stereo not drawn) [aminoglutethimide],Structural based (HCI),"human hepatocytes; In vitro Assay, ref Xu 2008",-VE
same,hLiMTs ATP <20 x Cmax,PHH spheroids,-VE
same,In vivo DILI,[2]; ref Vorrink 2018,-VE
same,In vivo DILI,[2]; ref Xu 2008,-VE
Clc1ccc2c(c1)C(N1CCNCC1)=Nc1ccccc1O2 [amoxapine],"DILI +VE (5-8), DILI -VE (-4)",[1]; ref Chen 2016,-VE
same,DILI severity category,[1]; ref Chen 2016,Ambiguous DILI-concern
same,Structural based (HCI),"human hepatocytes; In vitro Assay, ref Xu 2008",-VE
same,hLiMTs ATP <20 x Cmax,PHH spheroids,-VE
same,In vivo DILI,[2]; ref Vorrink 2018,-VE
same,In vivo DILI,[2]; ref Xu 2008,-VE
Nc1cc(-c2ccncc2)c[nH]c1=O [amrinone],"DILI +VE (5-8), DILI -VE (-4)",[1]; ref Chen 2016,-VE
same,DILI severity category,[1]; ref Chen 2016,Ambiguous DILI-concern
same,Structural based (HCI),"human hepatocytes; In vitro Assay, ref Xu 2008",-VE
same,hLiMTs ATP <20 x Cmax,PHH spheroids,-VE
same,In vivo DILI,[2]; ref Vorrink 2018,+VE
same,In vivo DILI,[2]; ref Xu 2008,+VE
CC(C)COCC(CN(Cc1ccccc1)c1ccccc1)N1CCCC1 (stereo not drawn) [bepridil],Structural based (HCI),"human hepatocytes; In vitro Assay, ref Xu 2008",+VE
same,hLiMTs ATP <20 x Cmax,PHH spheroids,+VE (IC20 < 20 × Cmax.tot cut-off)
same,In vivo DILI,[2]; ref Vorrink 2018,+VE
same,In vivo DILI,[2]; ref Xu 2008,+VE
C[C@]12CC[C@@H]3c4ccc(O)cc4CC[C@H]3[C@@H]1CC[C@@H]2O [beta-estradiol],PHH ATP <100uM,PHH,-VE
same,hLiMTs ATP <100uM,hLiMTs [3],+VE (IC50 threshold of 100 µM)
same,in vitro data EC2<=1x Cmax,[4],-VE
same,in vitro data EC20<=2uM,[4],-VE
CN(C)CCC(c1ccc(Br)cc1)c1ccccn1 (stereo not drawn) [brompheniramine],Structural based (HCI),"human hepatocytes; In vitro Assay, ref Xu 2008",-VE
same,hLiMTs ATP <20 x Cmax,PHH spheroids,-VE
C[C@H](CCC(=O)O)[C@H]1CC[C@H]2[C@@H]3[C@H](O)C[C@@H]4C[C@H](O)CC[C@]4(C)[C@H]3CC[C@]12C [chenodiol],"DILI +VE (5-8), DILI -VE (-4)",[1]; ref Chen 2016,-VE
same,DILI severity category,[1]; ref Chen 2016,Ambiguous DILI-concern
same,Structural based (HCI),"human hepatocytes; In vitro Assay, ref Xu 2008",+VE
same,hLiMTs ATP <20 x Cmax,PHH spheroids,+VE (IC20 < 20 × Cmax.tot cut-off)
same,In vivo DILI,[2]; ref Vorrink 2018,+VE
same,In vivo DILI,[2]; ref Xu 2008,+VE
Cc1cc(C2CCCCC2)n(O)c(=O)c1 [ciclopirox],Structural based (HCI),"human hepatocytes; In vitro Assay, ref Xu 2008",-VE
same,hLiMTs ATP <20 x Cmax,PHH spheroids,-VE
same,In vivo DILI,[2]; ref Vorrink 2018,-VE
same,In vivo DILI,[2]; ref Xu 2008,-VE
CCN(CC)C(=O)N1CCN(C)CC1 [diethylcarbamazine],Structural based (HCI),"human hepatocytes; In vitro Assay, ref Xu 2008",-VE
same,hLiMTs ATP <20 x Cmax,PHH spheroids,-VE
COc1ccc([C@@H]2Sc3ccccc3N(CCN(C)C)C(=O)[C@@H]2OC(C)=O)cc1 [diltiazem],Structural based (HCI),"human hepatocytes; In vitro Assay, ref Xu 2008",-VE
same,hLiMTs ATP <20 x Cmax,PHH spheroids,-VE
CC(CCc1ccc(O)cc1)NCCc1ccc(O)c(O)c1 (stereo not drawn) [dobutamine],"DILI +VE (5-8), DILI -VE (-4)",[1]; ref Chen 2016,-VE
same,DILI severity category,[1]; ref Chen 2016,vNo-DILI-Concern
same,Structural based (HCI),"human hepatocytes; In vitro Assay, ref Xu 2008",-VE
same,hLiMTs ATP <20 x Cmax,PHH spheroids,-VE
same,In vivo DILI,[2]; ref Vorrink 2018,-VE
same,In vivo DILI,[2]; ref Xu 2008,-VE
COc1cc2c(cc1OC)C(=O)C(CC1CCN(Cc3ccccc3)CC1)C2 (stereo not drawn) [donepezil],Inhibition of rBsep cutoff<3,rBsep,-VE
same,AC50,hLiMTs [5]; read-out: ATP endpoint AC50,9.76 µM
same,minimal effective concentration,hLiMTs [5]; read-out: ATP endpoint MEC,3.17 µM
same,AC50,hLiMTs [5]; read-out: HCS endpoint AC50,7.19 µM
same,minimal effective concentration,hLiMTs [5]; read-out: HCS endpoint MEC,0.487 µM
same,minimal effective concentration,HepaRG spheroids; read-out: ATP endpoint MEC,6.49 µM
same,minimal effective concentration,HepaRG spheroids; read-out: HCS endpoint MEC,9.43 µM
